{
  "source": "patent US5565462A",
  "about": "“Composition for topical treatment of psoriasis and atopic dermatitis comprising a xanthine derivative” (Teva Pharmaceutical Industries, Ltd., priority 1991, dated 1996)",
  "key": {"[1]": {"test_system": "human psoriatic skin transplants", "experiment": "Topical treatment of human psoriatic skin transplanted to nude mice (epidermal thickness / acanthosis)", "assay_type": "in vivo, human skin on outbred Balb/C nude mice", "description": "Human psoriatic skin from psoriatic patients was transplanted to nude mice essentially according to the method of G. Kreuger et al., Prog. in Dermatol. […] The donors had stable plaque type psoriasis for at least one year preceding biopsy and had not received systemic anti-psoriatic therapy for the 4 weeks preceding biopsy. They had also not received topical therapy or U.V. therapy for the two weeks preceding biopsy. […] In this method the area (A) of the psoriasis in four main body parts (head (H), trunk (T), upper extremities (U) and lower extremities (L)) is assigned a value from 0-6 depending on the extent of psoriasis where O reflects no involvement and 6 reflects 90-100% involvement. The severity of the lesion is assessed based on three parameters: Erythema (E), Desquamation (scaling) (D) and Infiltration (I). The severity of each of these parameters is measured on a scale of 0-4 where 0 is no involvement and 4 is very sever. The total severity score is calculated according to the following formula: […]\nSplit thickness biopsies of nonpustular psoriatic human tissue, 4×5 cm and 0.4 mm thick were obtained from the edge of established plaques from various donor patients. […] The grafts were allowed to heal for one week prior to topical application of the test preparations.\nOutbred Balb/C nude mice, 2 to 3 months of age were used in this study. The mice were obtained from the pathogen free animal breeding facility at the University of Tel Aviv (Israel) and were raised in the pathogen-free animal facility at the Faculty of Medicine, Technion-Israel Institute of Technology, Haifa, Israel.\nOn the day following the end of treatment the severity of the psoriatic lesion was assessed and then the animals were sacrificed and the entire graft was excised and divided into two equal sections. One section was used to assess changes in the rate of proliferation by autoradiography (tritiated thymidine incorporation) while the other section was sectioned for microscopic histological assessment, including acanthosis and parakeratosis.\nIn another series of experiments, human psoriatic skin of various severities was transplanted on each of 28 nude mice. The graft area was treated with various preparations as described above.\nThe treatments were applied as creams and were administered as described above."}, "[2]": {"test_system": "human psoriatic fibroblasts", "experiment": "Inhibition of human psoriatic fibroblast proliferation", "assay_type": "cell-based", "settings": "Homo sapiens, Fibroblast", "procedure": "PTX and PPF, alone as well as PTX in combination with other drugs were tested.\nHuman psoriatic fibroblasts were obtained from skin biopsies of 5 individuals with plaque psoriasis. Cells in the 3-7th passages were used for the experiments. Human psoriatic fibroblasts (4×10^3 -6×10^3 cells) were added in 24-well plates and cultured in Dulbecco's Modified Eagle's Medium (DMEM) supplemented with 10% fetal calf serum, 2 mM L-glutamine, 100 u/ml penicillin, 100 μg/ml streptomycin (DMEM+) at 5% CO2 and 95% humidity at 37° C.\nAfter 3 days, medium was replaced with fresh DMEM+(control) or with medium containing various concentrations of compounds alone or in combination with pentoxifylline and incubation was continued for additional 3 days. Stock solutions (10^-1 -10^-2 M) of the compounds tested were made in ethanol. For these compounds special control (DMEM+ with 1% ethanol) was made. The compounds tested together with pentoxifylline were 3-heptanone, 3,3-dimethylbutyric acid, lipoic acid, 1,25-dihydroxyvitamin D3 betamethasone dipropionate and hydrocortisone-17-butyrate.\nOn the last day of experiments, the medium was aspirated and the cells were obtained by trypsinization. The number of cells in each well was counted by the use of an hemocytometer.\nThe percentage of inhibition of fibroblast proliferation was calculated according to the formula: [formula] and the results are shown in Tables 3 and 4."}, "[3]": {"test_system": "human peripheral blood mononuclear cells (lymphocytes)", "experiment": "Inhibition of the mitogenic (PHA) stimulation of human lymphocytes (PBMC), [3H]thymidine", "assay_type": "cell-based", "procedure": "Buffy coats from the Beilinson Medical Center Blood Bank or 20 mL samples of heparinized venous blood from healthy or atopic donors were used as a source for human peripheral blood mononuclear (PBM) cells. PBM cells were separated by Ficoll-Hypaque density gradient centrifugation. […] The nonadhering cells were stirred gently and carefully collected.\nPHA (1 μg/mL), indomethacin (5 μg/mL) and various xanthine derivatives were added at initiation of culture. Indomethacin was dissolved in ethanol. […] [methyl-^3 H]Thymidine (1 μCi/well) was added at 68 h, and the cells were harvested 4 h later using an automated cell harvester (Dynatech, Alexandria, Va.). Unless otherwise stated, all cultures were performed in triplicate."}, "psoriasis lesions": {"test_system": "psoriasis lesions", "experiment": "Clinical trial in psoriasis, 2% pentoxifylline cream vs placebo, right-left comparison, PASI", "assay_type": "in vivo, human patients", "settings": "for decrease in PASI: 2% cream twice daily", "procedure": "A clinical trial was performed comparing a cream composition of 2% pentoxifylline (formulation A of Example 1) to placebo. The trial was randomized, double blind, placebo controlled, right-left comparison within patient design.\nTwo similar plaque areas of psoriasis (i.e. both legs or forearms), were selected for treatment in each patient. In each patient one area on one side of the body was treated with 2% pentoxifylline formulated as in Example 1 and the other area on the other side of the body was treated with placebo cream formulated identically but without the pentoxifylline. The cream (formulation A in Example 1) was applied by the patient twice daily.\nPatients stopped all forms of topical psoriatic treatment two weeks before entry into the study.\nSystemic psoriatic treatments and phototherapy were stopped one month before entry into the study.\nThe dermatological assessment was performed as follows. The dermatologist measured the area of the lesion in cm^2. The severity of each lesion was evaluated by grading erythema, scaling and thickness on a 0-4 scale where 0=none, 1=slight, 2=moderate, 3=severe and 4=exceptionally severe.\nBased on these measurements the Psoriasis Area Severity Index (PASI) was calculated for each of the 2 lesions on each patient as follows:\nPASI=Area x (Erythema+Thickness+Scaling)"}, "atopic dermatitis": {"test_system": "atopic dermatitis", "experiment": "Clinical trial in atopic dermatitis, 2% pentoxifylline cream vs vehicle, bilateral comparison", "assay_type": "in vivo, human patients", "settings": "2% cream twice a day, four weeks, seven patients aged 3-10 years", "procedure": "A randomized double blind, vehicle controlled, bilateral comparison study was performed, to determine the effect of pentoxifylline (PTX) in the treatment of atopic dermatitis. The study medication contained 2% pentoxifylline in an oil-in-water cream vehicle, and the control treatment consisted of the same vehicle without the pentoxifylline. The exact formulations appear in Table 7.\nSeven patients (aged 3-10 years) were enrolled in the trial and evaluated for pruritus, erythema, dryness/scaling and exudate. Pentoxifylline cream, or the placebo (the identical cream, but without the pentoxifylline) were dispensed in identical tubes that were marked for application to right and left sides. Patients were instructed to apply medication twice a day (morning and evening) for four weeks."}},
  "data": [
    {"smiles": "CC(=O)CCCCn1c(=O)c2c(ncn2C)n(C)c1=O", "note": "[Pentoxifylline, 3,7-dimethyl-1-(5-oxohexyl)-xanthine]", "values": [
      {"measurement": "% Improvement (Decrease in Thickness)", "setting": "[1]; 2% PTX cream, 7 days, donor patient 3 (PASI 7.6)", "result": 40, "unit": "%"},
      {"measurement": "% Improvement (Decrease in Thickness)", "setting": "[1]; 2% PTX cream, 7 days, donor patient 4 (PASI 17.6)", "result": 22, "unit": "%"},
      {"measurement": "% Improvement (Decrease in Thickness)", "setting": "[1]; 2% PTX cream, 7 days, donor patient 6 (PASI 3.8), placebo 0", "result": 30, "unit": "%"},
      {"measurement": "Average Improvement (decrease in epidermal thickness)", "setting": "[1]; 2% PTX cream, 7 days, placebo 5%", "result": 31, "unit": "%"},
      {"measurement": "Epidermal Thickness (Acanthosis) after 7 days treatment", "setting": "[1]; 2% PTX cream, donor patient 3 (PASI 7.6), before treatment 46 μm", "result": 28, "unit": "μm"},
      {"measurement": "Epidermal Thickness (Acanthosis) after 7 days treatment", "setting": "[1]; 2% PTX cream, donor patient 4 (PASI 17.6), before treatment 54 μm", "result": 42, "unit": "μm"},
      {"measurement": "Epidermal Thickness (Acanthosis) after 7 days treatment", "setting": "[1]; 2% PTX cream, donor patient 6 (PASI 3.8), before treatment 55 μm", "result": 39, "unit": "μm"},
      {"measurement": "SUCCESS RATIO (decrease of at least 15% in epidermal thickness)", "setting": "[1]; 2% pentoxifylline cream (Example 1A), 7 days topical, placebo 0/6", "result": "6/10"},
      {"measurement": "effectiveness in treating psoriasis (in words)", "setting": "[1]; experiment of Table 1, transplanted skin", "result": "almost as effective as steroids in treating psoriasis and far more effective than dyphylline"},
      {"measurement": "effectiveness in treating psoriasis (in words)", "setting": "[1]; experiment of Table 2, 28 nude mice", "result": "almost as effective as topical steroids in treating psoriasis and far more effective than dyphylline"},
      {"measurement": "effectiveness in the treatment of psoriasis (in words)", "setting": "[1]; summary of the animal model experiments", "result": "effective in the treatment of psoriasis"},
      {"measurement": "inhibition at 1000 µM", "setting": "[2]; PTX alone, 10^-3 M, Table 3", "result": 16.9, "unit": "%"},
      {"measurement": "inhibition at 100 µM", "setting": "[2]; compound alone, 10^-4 M, Table 4", "result": 5.9, "unit": "%"},
      {"measurement": "inhibition at 1000 µM", "setting": "[3]; Homo sapiens, Lymphocyte, 1 × 10^-3 M, lymphocytes from healthy volunteers, read-out: net inhibitory effect on the mitogenic stimulation of human lymphocytes", "result": 70, "unit": "%"},
      {"measurement": "inhibition at 300 µM", "setting": "[3]; Homo sapiens, Lymphocyte, 3 × 10^-4 M, lymphocytes from healthy volunteers, read-out: net inhibitory effect on the mitogenic stimulation of human lymphocytes", "result": 46, "unit": "%"},
      {"measurement": "inhibition of the mitogenic stimulation compared with the other xanthine derivatives (in words)", "setting": "[3]; vs theophylline and diphylline, healthy volunteers", "result": "inhibited the mitogenic stimulation to a far greater effect than the other xanthine derivatives"},
      {"measurement": "decrease in PASI", "setting": "psoriasis lesions; Patient 1, 1.5 weeks, placebo side 0%", "result": 58, "unit": "%"},
      {"measurement": "decrease in PASI", "setting": "psoriasis lesions; Patient 2, 2 weeks, placebo side 34%", "result": 53, "unit": "%"},
      {"measurement": "decrease in PASI", "setting": "psoriasis lesions; Patient 3, 2 weeks, placebo side 45%", "result": 73, "unit": "%"},
      {"measurement": "decrease in PASI", "setting": "psoriasis lesions; Patient 3, 6 weeks, placebo side 56%", "result": 90, "unit": "%"},
      {"measurement": "decrease in PASI", "setting": "psoriasis lesions; Patient 4, 6 weeks, placebo side 73%", "result": 91, "unit": "%"},
      {"measurement": "decrease in PASI", "setting": "psoriasis lesions; Patient 4, 8 weeks, placebo side 57%", "result": 88, "unit": "%"},
      {"measurement": "decrease in PASI", "setting": "psoriasis lesions; Patient 5, 2 weeks, placebo side 25%", "result": 73, "unit": "%"},
      {"measurement": "effectiveness in the treatment of psoriatic lesions (in words)", "setting": "psoriasis lesions; topical, summary of clinical trials", "result": "very effective therapeutic for the treatment of psoriatic lesions"},
      {"measurement": "improvement of pruritus, erythema, dryness/scaling and exudate (in words)", "setting": "atopic dermatitis", "result": "significantly improved each of the four symptoms evaluated"}
    ]}
  ]
}
